Assay results as given in patent US9623016B2, “Antibacterial compounds” (Emergent Virology LLC, priority 2013, dated 2017).
Where two headings read alike, the source gives them in different places.

Legend:
E. coli (WT) = system: E. coli (WT)
Procedure: (§1) MBC is the lowest concentration of compound required to kill an organism. […] In the case of small colony variants, growth might not occur earlier than 48 hours.

P. aeruginosa 4961 = system: P. aeruginosa 4961
Procedure: as §1

[1] = system: S. aureus USA 300 alpha toxin; conditions: 3 h incubation; hemolysis of 2% rabbit RBC, OD416 nm; FIG. 4
Procedure: • 1. Grow USA300 in MHA plate O/N • 2. Swab bacteria culture from plate and re-suspend in 2 ml PBS • 3. Spin and discard sup. • 4. Wash with 2 ml of PBS. • 5. Re-suspend in 2 ml LB. • 6. […] Add inoculum (make two different inoculum size: 1 and 1:10 in LB). […] Incubate at 370 C for 3 h • 11. Read growth OD600 (T3). • 12. Perform alpha hemolytic assay by using 2% rabbit RBC. Read OD416 nm (T3 hemolysis)

[2] = system: Staphylococcus aureus USA300; conditions: 200 mg/kg UV-4B orally TID for 10 days, from 3 days before IP challenge; water control 30%
Procedure: The challenge inoculum included 6.13e4 cfu USA300+3% Hog mucin which causes bacteremia/sepsis within 24-72 h. […] The mice used were 6-8 week old female BALB/c mice in groups of 10. One group of 5 mice was also included to examine the potential toxicity of 3% hog mucin. Endpoint was day 10 post infection, death, or euthanasia Animals displaying severe illness as determined by >30% weight loss, extreme lethargy, or paralysis were euthanized. Observation included daily weight, health checks, and temperatures starting with the initiation of dosing until 10 days post challenge.

S. aureus (USA300) [3] = assay: Minimum Inhibitory Concentration (MIC); format: cell-based
Procedure: The MIC assay is a technique used to determine the lowest concentration of a particular antibiotic needed to inhibit visible growth of bacteria. In this method, two fold serial dilutions of the compound were prepared in broth media. An inoculum of overnight bacterial cultures will be prepared in the same broth medium. The serial dilution tubes will be inoculated with 0.025 ml of undiluted over-night culture (1:100), a 1×10-2 dilution (1:10,000), or a 1×10-4 dilution (1:1,000,000) of bacterial suspension. Results were recorded after 24 hour incubation at 35° C. without shaking by measuring OD600. The MIC is determined by the lowest concentration of compound where no growth is visible.

B. subtilis = assay: Minimum Bactericidal Concentration (MBC); format: cell-based
Procedure: as §1

P. aeruginosa 4858 = assay: Minimum Bactericidal Concentration (MBC); format: cell-based
Procedure: as §1

S. aureus (8324-5) = assay: Minimum Bactericidal Concentration (MBC); format: cell-based
Procedure: as §1

S. aureus (USA300) [4] = assay: Minimum Bactericidal Concentration (MBC); format: cell-based
Procedure: as §1

S. aureus (Col) = assay: Minimum Bactericidal Concentration (MBC); format: cell-based
Procedure: as §1

S. aureus = assay: Minimum Bactericidal Concentration (MBC); format: cell-based; conditions: UV-4B
Procedure: as §1

SMILES: COCCCCCCCCCN1C[C@H](O)[C@@H](O)[C@H](O)[C@H]1CO.Cl [UV-4B, hydrochloric acid salt of N-(9-Methoxynonyl)deoxynojirimycin]
- MBC (E. coli (WT); UV-4B): 10000 µg/mL
- growth after re-inoculation on BHI agar (E. coli (WT); UV-4B 2.50 mg/ml): +
- growth after re-inoculation on BHI agar (E. coli (WT); UV-4B 5.00 mg/ml): +
- growth after re-inoculation on BHI agar (E. coli (WT); UV-4B 10 mg/ml): −
- MBC (P. aeruginosa 4961; UV-4B): >20000 µg/mL
- growth after re-inoculation on BHI agar (P. aeruginosa 4961; UV-4B 2.50 mg/ml): +
- growth after re-inoculation on BHI agar (P. aeruginosa 4961; UV-4B 5.00 mg/ml): +
- growth after re-inoculation on BHI agar (P. aeruginosa 4961; UV-4B 10 mg/ml): +
- growth after re-inoculation on BHI agar (P. aeruginosa 4961; UV-4B 20 mg/ml): +
- concentration allowing inhibition of alpha toxin production [1]: higher than 2.5 mg/ml
- survival [2]: 80%
- MIC (S. aureus (USA300) [3]; Table 3, two independent tests): 2500 µg/mL
- MIC (S. aureus (USA300) [3]; Table 4): 62.5 µg/mL
- growth (OD600) (S. aureus (USA300) [3]; Table 4, 0.02 mg/ml): + (+ OD600 <0.05)
- growth (OD600) (S. aureus (USA300) [3]; Table 4, 0.04 mg/ml): + (+ OD600 <0.05)
- growth (OD600) (S. aureus (USA300) [3]; Table 4, 0.08 mg/ml): + (+ OD600 <0.05)
- growth (OD600) (S. aureus (USA300) [3]; Table 4, 0.16 mg/ml): + (+ OD600 <0.05)
- growth (OD600) (S. aureus (USA300) [3]; Table 4, 0.31 mg/ml): + (+ OD600 <0.05)
- growth (OD600) (S. aureus (USA300) [3]; Table 4, 0.63 mg/ml): − (− OD600 >0.05)
- growth (OD600) (S. aureus (USA300) [3]; Table 4, 2.50 mg/ml): − (− OD600 >0.05)
- growth (OD600) (S. aureus (USA300) [3]; Table 4, 5 mg/ml): − (− OD600 >0.05)
- growth (OD600) (S. aureus (USA300) [3]; Table 4, 10 mg/ml): − (− OD600 >0.05)
- growth (OD600) (S. aureus (USA300) [3]; Table 4, 20 mg/ml): − (− OD600 >0.05)
- visible growth (S. aureus (USA300) [3]; UV-4B 0.04 mg/ml): +
- visible growth (S. aureus (USA300) [3]; UV-4B 0.08 mg/ml): +
- visible growth (S. aureus (USA300) [3]; UV-4B 0.16 mg/ml): +
- visible growth (S. aureus (USA300) [3]; UV-4B 0.31 mg/ml): +
- visible growth (S. aureus (USA300) [3]; UV-4B 0.63 mg/ml): +
- visible growth (S. aureus (USA300) [3]; UV-4B 2.50 mg/ml): −
- visible growth (S. aureus (USA300) [3]; UV-4B 5 mg/ml): −
- visible growth (S. aureus (USA300) [3]; UV-4B 10 mg/ml): −
- visible growth (S. aureus (USA300) [3]; UV-4B 20 mg/ml): −
- MBC (B. subtilis; UV-4B): >10000 µg/mL
- growth after re-inoculation on BHI agar (B. subtilis; UV-4B 2.50 mg/ml): +
- growth after re-inoculation on BHI agar (B. subtilis; UV-4B 5.00 mg/ml): +
- growth after re-inoculation on BHI agar (B. subtilis; UV-4B 10 mg/ml): +
- MBC (P. aeruginosa 4858; UV-4B): >20000 µg/mL
- growth after re-inoculation on BHI agar (P. aeruginosa 4858; UV-4B 2.50 mg/ml): +
- growth after re-inoculation on BHI agar (P. aeruginosa 4858; UV-4B 5.00 mg/ml): +
- growth after re-inoculation on BHI agar (P. aeruginosa 4858; UV-4B 10 mg/ml): +
- growth after re-inoculation on BHI agar (P. aeruginosa 4858; UV-4B 20 mg/ml): +
- growth after re-inoculation on BHI agar (S. aureus (8324-5); UV-4B 2.50 mg/ml): +
- growth after re-inoculation on BHI agar (S. aureus (8324-5); UV-4B 5.00 mg/ml): +
- growth after re-inoculation on BHI agar (S. aureus (8324-5); UV-4B 10 mg/ml): +
- growth after re-inoculation on BHI agar (S. aureus (8324-5); UV-4B 20 mg/ml): −
- MBC (S. aureus (USA300) [4]; UV-4B): >20000 µg/mL
- growth after re-inoculation on BHI agar (S. aureus (USA300) [4]; UV-4B 2.50 mg/ml): +
- growth after re-inoculation on BHI agar (S. aureus (USA300) [4]; UV-4B 5.00 mg/ml): +
- growth after re-inoculation on BHI agar (S. aureus (USA300) [4]; UV-4B 10 mg/ml): +
- growth after re-inoculation on BHI agar (S. aureus (USA300) [4]; UV-4B 20 mg/ml): +
- MBC (S. aureus (Col); UV-4B): 2500 µg/mL
- growth after re-inoculation on BHI agar (S. aureus (Col); UV-4B 2.50 mg/ml): −
- growth after re-inoculation on BHI agar (S. aureus (Col); UV-4B 5.00 mg/ml): −
- growth after re-inoculation on BHI agar (S. aureus (Col); UV-4B 10 mg/ml): −
- MBC (S. aureus): 20000 µg/mL
